According to article PMC12598616, “Design and optimization of caspase-1-responsive fluorescent probes for pyroptosis imaging and anti-pyroptosis drug screening” (Chemical Science, 2025):

Experiments:
[1] = tested on: Cas-1 in NP cell spheroids; experiment: Imaging in nucleus pulposus 3D cell spheroids; assay type: cell-based, rat; details: H2O2 2 mM 30, 60, 90 min; FPy1 5 μM; compared with 2D cells
From the text: With advancing age, the prevalence of degenerative bone and joint disorders (DBJDs), such as intervertebral disc degeneration (IVDD) and osteoarthritis (OA), increases markedly among middle-aged and elderly individuals.[30] Chronic inflammation has been identified as the underlying cause of DBJDs. In particular, inflammasome-mediated pyroptosis has been recognized as a primary contributor to sustained inflammatory responses.[31] Consequently, pyroptosis-associated biomarkers represent promising indicators for the diagnosis and monitoring of DBJDs. IVDD, a chronic degenerative condition closely related to natural aging, has become one of the leading causes of disability worldwide.[32] […] The imaging results indicated a positive correlation between fluorescence intensity and H2O2-stimulation time (Fig. 4b). […] Encouraged by the promising imaging results of FPy1 in NP cells and cell spheroids, we further assessed its capability for imaging pytoptosis in vivo. […] Following intradiscal injection of FPy1, the fluorescence images of the tail modeling site were obtained from the dorsal aspect. […] Histological scoring result corroborated these findings, reflecting the same trends as with fluorescence imaging observed using FPy1 (Fig. S13b). […]
The cytotoxicity of FPy1 and YPy1 to THP-1 was evaluated by cell counting kit-8 (CCK-8). […]

Cas-1 in THP-1 cells = experiment: Imaging and flow cytometry in Cas-1 siRNA knockdown THP-1 cells; assay type: cell-based; details: caspase-1 siRNA, LPS 1 μg/mL and Nig 10 μM
Protocol: Cytotoxicity assay (CCK-8)
The cytotoxicity of FPy1 and YPy1 to THP-1 was evaluated by cell counting kit-8 (CCK-8). Briefly, the THP-1 cells were seeded in 96-well plates (5000 cells/well) and cultured at 37 °C for 24 hours. Various concentrations of FPy1 or YPy1 (0, 2.5, 5, 10, 20, 30, 40, 50 μM) in RPMI 1640 medium were added, and the cells were kept incubation for 12 hours. Then, the cells were washed with PBS and incubated in the 100 μL fresh medium with 10 μL CCK8 dye for an additional 2 hours. The absorbance was measured at 450 nm using a Tecan Infinite M1000 Multi-function microplate reader, and cell viability was calculated using the formula:
Cell viability (%) = [(OD test-ODblank)/(ODcontrol-ODblank)] ×100%
Intracellular imaging with FPy1 in THP-1 cells
THP-1 cells were seeded in dishes and cultured overnight. […] The fluorescence imaging was performed under the excitation at 514 nm with signal collection in the range […]
for 4 hours, the cells were further treated with Nig (10 μM) for 2 hours. […] The distribution of FPy1 was analyzed by collecting organelle-specific dye fluorescence at 495-525 nm with 488 nm excitation, while simultaneously detecting FPy1 fluorescence at 530-610 nm with 514 nm excitation. […]
Nucleus pulposus cells were isolated from discs and resuspended in 1mL DMEM/F12 medium containing 10 μM ITS-A. A total of […] were counted and transferred into centrifuge tubes. […]

## –FLTDG– [FPy1, RhoB donor, hNR quencher]
[1]
  fluorescence enhancement in NP spheroids: the fluorescence enhancement in the spheroids was more pronounced
Cas-1 in THP-1 cells
  fluorescence intensity in Si-Casp1 group (flow cytometry): lower than that in the Si-Scramble group
Cas-1 in THP-1 cells; FPy1 5 μM
  intracellular fluorescence intensity in Si-Casp1 group (confocal): significantly lower than that in the Si-Scramble group
